Assay results published in PubChem BioAssay (NCI).
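A five-concentration, 48-hour dose response in 96-well plates underlies each endpoint, interpolated linearly between surrounding concentrations. Here, GI50 denotes the concentration required for 50% inhibition of growth. TGI denotes the concentration required for complete inhibition of growth.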

Legend:
Experiment in all cases: growth of human tumour cells (NCI), 48 h
RPMI-8226 leukemia = tested on: RPMI-8226 leukemia
ACHN renal = tested on: ACHN renal
COLO 205 colon = tested on: COLO 205 colon
HCC-2998 colon = tested on: HCC-2998 colon
HOP-62 NSCLC = tested on: HOP-62 NSCLC
A549 NSCLC = tested on: A549 NSCLC
MALME-3M melanoma = tested on: MALME-3M melanoma
OVCAR-8 ovarian = tested on: OVCAR-8 ovarian
NCI-H522 lung = tested on: NCI-H522 lung
HL-60(TB) leukemia = tested on: HL-60(TB) leukemia

Row | Structure (SMILES) | GI50 (RPMI-8226 leukemia) [µM] | TGI (RPMI-8226 leukemia) [µM] | GI50 (ACHN renal) [µM] | TGI (ACHN renal) [µM] | GI50 (COLO 205 colon) [µM] | TGI (COLO 205 colon) [µM] | GI50 (HCC-2998 colon) [µM] | TGI (HCC-2998 colon) [µM] | GI50 (HOP-62 NSCLC) [µM] | TGI (HOP-62 NSCLC) [µM] | GI50 (A549 NSCLC) [µM] | TGI (A549 NSCLC) [µM] | GI50 (MALME-3M melanoma) [µM] | TGI (MALME-3M melanoma) [µM] | GI50 (OVCAR-8 ovarian) [µM] | TGI (OVCAR-8 ovarian) [µM] | GI50 (NCI-H522 lung) [µM] | TGI (NCI-H522 lung) [µM] | GI50 (HL-60(TB) leukemia) [µM] | TGI (HL-60(TB) leukemia) [µM]
1 | CC(=O)C1=C([O-])C(C)OC1=O.CC(=O)C1=C([O-])C(C)OC1=O.[NH-]C1CCCC[C@H]1[NH-].[Pt+4] (stereo not given) | 8.72 | > 100 | 73.2 | > 100 | 35.1 | > 100 | > 100 | > 100 | > 100 | > 100 | 88.1 | > 100 | 48 | > 100 | > 100 | > 100 | 27.5 | > 100 | 16.1 | > 100
2 | Oc1cc(Cl)ccc1Oc1ccc(Cl)cc1Cl | 2.02 | 5.7 | 3.47 | 11.3 | 3.88 | 13.3 | 2.57 | 6.61 | 2.27 | 5.16 | 2.6 | 8.12 | 2.37 | 6.83 | 2.81 | 9.18 | 2.36 | 6.05 | 3.31 | 8.31
3 | COC1CC(n2cnc3c(N)ncnc32)OC1CO (stereo not given) |  | > 100 |  | > 100 |  | > 100 |  | > 100 |  | > 100 |  | > 100 |  | > 100 |  | > 100 |  | > 100 |  | > 100
4 | C[C@H](CS(C)(=O)=O)Nc1ncc2cc(Oc3ccc(F)cc3F)c(=O)n(C)c2n1 | > 25 | > 25 | > 25 | > 25 | > 25 | > 25 | > 25 | > 25 | > 25 | > 25 | > 25 | > 25 | > 25 | > 25 | > 25 | > 25 | > 25 | > 25 | > 25 | > 25
5 | COC(=O)[C@]1(C)CCC[C@@]2(C)C1CCC1=C[C@@]3(C(C)C)CC[C@]12OO3 (stereo not given in full) |  | 47 |  | > 100 |  | 45 |  | > 100 |  | > 100 |  | > 100 |  | > 100 |  | > 100 |  | 35.4 |  | 42
6 | CC1=CC(=O)C(C(C)=Nc2ccccc2Cl)C(=O)O1 (stereo not given) | > 100 | > 100 | > 100 | > 100 | > 100 | > 100 | > 100 | > 100 | > 100 | > 100 | > 100 | > 100 | > 100 | > 100 | > 100 | > 100 | > 100 | > 100 | > 100 | > 100
7 | Clc1ccc(CN2COc3c(cc(Cl)c4cccnc34)C2)cc1 |  | 3.42 |  | 8.74 |  | 31.7 |  | 12 |  | 3.35 |  | 6.12 |  | 5.74 |  | 5.05 |  | 3.12 |  | 2.11
